Reference: patent US9296776B2, “Substituted nucleoside derivatives with antiviral and antimicrobial properties” (Eastern Virginia Medical School, priority 2007, dated 2016)
Values after ≈ are worked out from the molar mass of the structure shown.

Experiments:
Assay type in all cases: cell-based
[1] = test system: HIV-1 IIIB (cell-free virus); test: microbe, parasite or virus in culture; settings: for EC50 Cell-free HIV-1 (IIIB) / EC50: Table 8; for EC50: read-out: EC50 Cell-free HIV-1 (IIIB); for EC50 Cell-Free Virus IIIB: Table 6
[2] = test system: HIV-1 BaL (cell-free virus); test: Single-round infection assay, cell-free virus BaL; settings: for EC50 Cell-Free Virus BaL: Table 6
[3] = test system: Cell-associated HIV-1, SupT1 (IIIB); test: Single-round infection assay, cell-associated virus SupT1 (IIIB); settings: Human immunodeficiency virus 1, IIIB, SUP-T1, read-out: IC50 Cell-Associated Virus SupT1 (IIIB)
[4] = 2 h incubation, wash, 48 h culture

Compound	EC50 Cell-free HIV-1 (IIIB) [1, 4] [µg/mL]	EC50 [1, 4] [µM]	other results
Cc1cn([C@H]2C=C[C@@H](CO)O2)c(=O)[nH]c1=O [2′,3′-didehydro-2′,3′-dideoxythymidine, reference compound]			IC50 ([1]; Human immunodeficiency virus 1, IIIB, read-out: IC50 Cell-Free Virus IIIB): 6 µg/mL (≈ 26.8 µM); IC50 ([2]; Human immunodeficiency virus 1, BAL, read-out: IC50 Cell-Free Virus BaL): 6.3 µg/mL (≈ 28.1 µM); IC50 [3]: 30.5 µg/mL (≈ 136 µM)
Cc1cn([C@H]2C[C@H](F)[C@@H](COC(=O)CCCCCCCCCCCN)O2)c(=O)[nH]c1=O [3′-fluoro-2′,3′-dideoxy-5′-O-(12-aminododecanoyl)thymidine]			IC50 Cell-Free Virus IIIB ([1]; Table 1, 2 h incubation, wash, 48 h culture): 0.67 µg/mL (≈ 1.52 µM)
CC(=O)NC(CCC(=O)OC[C@H]1O[C@@H](n2cc(C)c(=O)[nH]c2=O)C[C@@H]1F)C(=O)OC[C@@H]1O[C@H](n2ccc(N)nc2=O)CS1 (some centres unmarked) [KPH-96, FLT(Glutamyl)-3TC]	10.7 (≈ 17.1 µM)	17.1	
CCCCCCCCCCCCCC(=O)NC(CCC(=O)OC[C@H]1O[C@@H](n2cc(C)c(=O)[nH]c2=O)C[C@@H]1F)C(=O)OC[C@@H]1O[C@H](n2ccc(N)nc2=O)CS1 (some centres unmarked) [KPH-97]	1.6 (≈ 2.01 µM)	2	
CC(=O)NC(CCC(=O)OC[C@H]1O[C@@H](n2cc(C)c(=O)[nH]c2=O)C[C@@H]1F)C(=O)OC[C@H]1O[C@@H](n2cc(C)c(=O)[nH]c2=O)C[C@@H]1N=[N+]=[N-] (some centres unmarked) [KPH-98, FLT(Glutamyl)-AZT]	9.0 (≈ 13.5 µM)	13.5	
CCCCCCCCCCCCCC(=O)NC(CCC(=O)OC[C@H]1O[C@@H](n2cc(C)c(=O)[nH]c2=O)C[C@@H]1F)C(=O)OC[C@H]1O[C@@H](n2cc(C)c(=O)[nH]c2=O)C[C@@H]1N=[N+]=[N-] (some centres unmarked) [KPH-99]	2.0 (≈ 2.4 µM)	2.4	
CCCCCCCCCCCCCC(=O)NC(CCC(=O)OC[C@H]1O[C@@H](n2cc(C)c(=O)[nH]c2=O)C[C@@H]1N=[N+]=[N-])C(=O)OC[C@@H]1O[C@H](n2ccc(N)nc2=O)CS1 (some centres unmarked) [KPH-910]	4.9 (≈ 5.99 µM)	6	
CC(=O)NC(CCC(=O)OC[C@H]1O[C@@H](n2cc(C)c(=O)[nH]c2=O)C[C@@H]1N=[N+]=[N-])C(=O)OC[C@@H]1O[C@H](n2ccc(N)nc2=O)CS1 (some centres unmarked) [KPH-911, AZT(Glutamyl)-3TC]	7.8 (≈ 12 µM)	12	
Cc1cn([C@H]2C[C@H](F)[C@@H](COC(=O)CCC(=O)OC[C@H]3O[C@@H](n4cc(C)c(=O)[nH]c4=O)C[C@@H]3F)O2)c(=O)[nH]c1=O [KPH-912, FLT-succinate-FLT]	2.1 (≈ 3.68 µM)	3.7	
Cc1cn([C@H]2C[C@H](N=[N+]=[N-])[C@@H](COC(=O)CCC(=O)OC[C@H]3O[C@@H](n4cc(C)c(=O)[nH]c4=O)C[C@@H]3N=[N+]=[N-])O2)c(=O)[nH]c1=O [KPH-913, AZT-succinate-AZT]	8.6 (≈ 13.9 µM)	13.9	
Cc1cn([C@H]2C[C@H](N=[N+]=[N-])[C@@H](COC(=O)CCC(NC(=O)CCC(=O)OC[C@H]3O[C@@H](n4cc(C)c(=O)[nH]c4=O)C[C@@H]3F)C(=O)OC[C@@H]3O[C@H](n4ccc(N)nc4=O)CS3)O2)c(=O)[nH]c1=O (some centres unmarked) [KPH-914, FLT-Succinate-AZT(glutamyl)-3TC]	0.9 (≈ 0.964 µM)	0.96	
Suramin-3′-azido-2′,3′-dideoxythymidine [Suramin-AZT]			EC50 Cell-Free Virus IIIB [1]: 19.4 µg/mL; EC50 Cell-Free Virus BaL [2]: 7.3 µg/mL
Suramin-3′-fluoro-2′,3′-dideoxythymidine [Suramin-FLT]			EC50 Cell-Free Virus IIIB [1]: 23.6 µg/mL; EC50 Cell-Free Virus BaL [2]: 6.2 µg/mL
